Experiments:
[1] = tested on: monkey TM cells; assay: Cell metabolic activity (resazurin reduction) assay in monkey TM cells; format: cell-based, rhesus monkeys (Macaca mulatta); conditions: 3 to 300 nM, end of treatment period; results not shown
Procedure: A modification of previously described methods^40 was employed to evaluate cell metabolic activity, an index of cell viability. After collection of CM samples, cells were briefly rinsed in modified Hanks balanced salt solution containing Ca^++ and Mg^++ (“MHBSS”), and then 0.0025% (w/v) resazurin (Sigma) in MHBSS was added to sample wells. Plates were incubated (37° C., 5% CO2, 95% humidity) for 90 minutes, after which fluorescence (Excitation 560 nm, Emission 590 nm) was read (Victor 3V Multilabel Counter, Wallac, Turku, Finland). As a positive control for decreased cellular metabolic reduction of resazurin, in each plate an additional well of vehicle control-treated cells was preincubated with 0.06% hydrogen peroxide (Fisher, Atlanta, Ga.) in MHBSS.

[2] = tested on: human corneal epithelial cells (HCECs); assay: IL-1β-stimulated cytokine production in primary human corneal epithelial cells (30-cytokine Luminex kit); conditions: IL-1β-stimulated HCECs, 18 h
Procedure: Primary HCECs were seeded in 24-well plates. […] Each treatment was performed in triplicate. Media were collected and used for determination of cytokine content using a 30-cytokine Luminex kit.
Median fluorescence intensity (WI) was used to obtain the concentration of each cytokines in pg/ml based on the standard curve of each cytokine assayed by Luminex. The linear range of the standard curve for each cytokine was used for determination of cytokine concentration. Duplicate values for each sample were averaged. Data were expressed as mean±SD. Statistical analysis was performed using one-way ANOVA-Dunnett's test, and P<0.05 was considered statistically significant.

SMILES	Cell viability compared to vehicle controls (resazurin reduction) [1]	Potency of inhibition of IL-1β-stimulated production of GM-CSF, IL-8, and RANTES relative to dexamethasone [2]	Inhibition of IL-1β-stimulated cytokine production on 6 cytokines (IL-6, IL-7, MCP-1, TGF-α, TNF-α and VEGF) ([2]; comparable potency of both)
Cc1ccc2c(NCC(O)(CC(C)(C)c3cc(F)cc4c3OCC4)C(F)(F)F)cccc2n1 (stereo not shown) [BOL-303242-X]	nor did any drug treatments result in a loss of cell viability	less potency compared to dexamethasone	significantly inhibited
C[C@@H]1C[C@H]2[C@@H]3CCC4=CC(=O)C=C[C@]4(C)[C@@]3(F)[C@@H](O)C[C@]2(C)[C@@]1(O)C(=O)CO [Dex, dexamethasone, reference compound]	nor did any drug treatments result in a loss of cell viability	–	–

— US20110077270A1, “Compositions and Methods for Treating Ocular Inflammation with Lower Risk of Increased Intraocular Pressure” (priority 2009, published 2011)
